Reference: patent publication US12414958B2, “Medicament and use thereof for treating bacterial infections involving biofilm” (Debiopharm International S.A., priority 2019, dated 2025)
Several values for one entry are separate records, joined by “and”; a condition that tells them apart may be missing. Identical values can stand only once.

System: S. aureus ATCC 43300 (MRSA)
Assay: Mouse tissue cage model of MRSA infection, 5.5-day treatment (Example 2)
Assay type: in vivo, Staphylococcus aureus
Conditions: for Cure rate (%) / adherent bacteria reduction from baseline (mean±SD): 24-h biofilm; for Cure rate (%) / Planktonic day 3 Δlog (individual animal) / adherent bacteria reduction from baseline (mean±SD): 5.5-day treatment; for Cure rate (%): cages without growth / total cages; for Adherent Mean / Adherent Δlog (individual animal): medium after sonication of explanted tissue cages, day 9 vs day 1; for Adherent Mean: group mean; for day on which bactericidal effect (mean reduction of bacterial load by ≥3 Log10) on planktonic bacteria was exerted: planktonic bacteria in tissue cage fluid, time points day 3, 6, 9; for Planktonic day 3 Mean / Planktonic day 6 Mean / Planktonic day 9 Mean / Planktonic day 3 Δlog (individual animal) / Planktonic day 9 Δlog (individual animal) / Planktonic day 6 Δlog (individual animal): tissue cage fluid; for Planktonic day 3 Mean / Planktonic day 6 Mean / Planktonic day 9 Mean: group mean Δlog from baseline (day 1); for Planktonic day 3 Δlog (individual animal) / Planktonic day 9 Δlog (individual animal) / Planktonic day 6 Δlog (individual animal): reduction from baseline (day 1); for Planktonic day 3 Δlog (individual animal): C57BL/6 mice; for Planktonic day 9 Δlog (individual animal): 3 days after end of treatment; for adherent bacteria reduction from baseline (mean±SD): n=3, given as positive reduction
Source text: The purpose of this study was to evaluate the efficacy of Debio 1450 BES alone and in combination with Daptomycin (DAP) in the mouse tissue cage model of implant-associated infections caused by methicillin resistant Staphylococcus (S.) aureus (MRSA). The efficacy against 24-h biofilm of S. aureus ATCC 43300 (MRSA) was investigated and compared to the standard of care combination of rifampicin (RIF) and DAP at the human equivalent doses. Employing a small initial inoculum (ca. 300 CFU/cage) together with a 24-h biofilm allowed to simulate clinical settings of an acute implant infection and/or surgical debridement.
The tissue cage model of prosthetic joint infections is very well-established and closely mimics the human prosthetic joint infections. This model is based on subcutaneous insertion of tissue cages followed by experimental infection of the foreign body by injection of bacterial inoculum into the cages.
In brief, one sterile polytetrafluorethylene (Teflon) cylinder (32×10 mm), perforated by 130 regularly spaced holes of 1 mm diameter (tissue cages; Angst-Pfister AG, Zürich) was aseptically implanted subcutaneously into the back of C57BL/6 mice (minimum weight 20 g). Experiments were started after complete wound healing (minimum 2 weeks after surgery). For the efficacy study presented here the cages in all animals were infected with around 300 colony-forming units (CFU) of the MRSA strain ATCC 43300 per cage and the biofilm were developed for 24 h before the beginning of the treatment.
The animals received antibiotic treatment i.p. (Debio 1450 BES and DAP) or sc (RIF) on day 1, 2, 3, 4, 5, and 6 (only the morning administration on day 6). One group received only 5% glucose and served as infected, untreated control group (vehicle). […] Debio 1450 and vehicle were administered bid, and qdam on day 6. DAP and RIF were administered qdam. The 50 mg/kg dose of Debio 1450 BES was selected as the HED. The DAP dose of […] was chosen as it closely correlates with the human clinical dosage of 10 mg/kg once daily. The RIF dose of 25 mg/kg is among the most commonly used in the treatment of experimental biofilm infections.
Five to 6 days before infection, TCF is aspirated to ascertain the sterility of implanted cages by TCF plating on blood agar plates. […] In addition, the number of bacteria in TCF was determined on day 3 (before the first injection that day), on day 6 (before last treatment), and on day 9 (before explantation of the cages) to evaluate the treatment efficacy against planktonic bacteria. The mouse number and bacterial count for the given cage were reported to analyse the time course of antibacterial activity of the tested drugs. The efficacy against biofilm-embedded bacteria was assessed qualitatively and quantitatively following aseptic explantation of the tissue cages 3 days after the completion of treatment. The 3 days of resting period will help to avoid the antibiotic carryover effect. Upon explantation, cages were washed twice with phosphate buffered saline (PBS) (Lot #5060914) and immediately transferred into 5 mL 0.9% NaCl (Lot #L161619 or L162658). Following 30 s vortexing, sonication (3 min at 130 W), and an additional 30 s vortexing step the numbers of bacteria dispersed from biofilm was determined by plating. The sonicated cages were washed once with PBS, transferred into 5 mL TSB (Lot #0286463), and incubated for 48 h at 37° C., with an additional vortexing step after 24 h of incubation. After the incubation, tubes were vortexed again and bacterial regrowth was assessed visually. In addition, 100 μL of each culture was plated on blood agar plates to ascertain the regrowth. A positive culture was defined as a treatment failure. The efficacy of treatment against adherent bacteria is expressed as the cure rate (in percent), defined as the number of cages without growth divided by the total number of cages in the individual treatment group.

SMILES	Cure rate (%)	Adherent Mean [log 10 CFU/mL]	Adherent Δlog (individual animal) (listed as DAP)	day on which bactericidal effect (mean reduction of bacterial load by ≥3 Log10) on planktonic bacteria was exerted [day]	Planktonic day 3 Mean [Log10]	Planktonic day 6 Mean [Log10]	Planktonic day 9 Mean [Log10]	Planktonic day 3 Δlog (individual animal) (listed as DAP)	Planktonic day 9 Δlog (individual animal) (listed as DAP)	Planktonic day 6 Δlog (individual animal) (listed as DAP)	adherent bacteria reduction from baseline (mean±SD) [log 10 CFU/mL]	Adherent Δlog (individual animal)	Planktonic day 6 Δlog (individual animal)	Planktonic day 3 Δlog (individual animal)	Planktonic day 9 Δlog (individual animal)	Planktonic day 3 Δlog (individual animal) (listed as RIF)	Planktonic day 9 Δlog (individual animal) (listed as RIF)	Planktonic day 6 Δlog (individual animal) (listed as RIF)
CCCCCCCCCC(=O)N[C@@H](Cc1c[nH]c2ccccc12)C(=O)N[C@H](CC(N)=O)C(=O)N[C@@H](CC(=O)O)C(=O)N[C@@H]1C(=O)NCC(=O)N[C@@H](CCCN)C(=O)N[C@@H](CC(=O)O)C(=O)N[C@H](C)C(=O)N[C@@H](CC(=O)O)C(=O)NCC(=O)N[C@H](CO)C(=O)N[C@@H]([C@H](C)CC(=O)O)C(=O)N[C@@H](CC(=O)c2ccccc2N)C(=O)O[C@@H]1C [Daptomycin]	33	−3.91	−4.48 log 10 CFU/mL (2×) and −2.78 log 10 CFU/mL	3	−3.10	−4.91	−3.60	−2.41 Log10 and −4.79 Log10 and −0.67 Log10 and −5.15 Log10 and −2.91 Log10 and −2.70 Log10	−1.07 Log10 and −4.79 Log10 and 0.73 Log10 and −5.15 Log10 and −5.95 Log10 and −5.38 Log10	−5.72 Log10 and −4.79 Log10 and −2.46 Log10 and −5.15 Log10 and −5.95 Log10 and −5.38 Log10								
Cc1c(CN(C)C(=O)/C=C/c2cnc3c(c2)CCC(=O)N3COP(=O)(O)O)oc2ccccc12 [Debio 1450, {6-[(1E)-3-{methyl [(3-methyl-1-benzofuran-2-yl)methyl]amino}-3-oxoprop-1-en-1-yl]-2-oxo-3,4-dihydro-1,8-naphthyridin-1 (2H)-yl} methyl dihydrogen phosphate]	50	−3.81		6	−2.62	−4.45	−3.90				3.81±1.15	−4.48 log 10 CFU/mL (2×) and −2.48 log 10 CFU/mL	−3.24 Log10 and −2.69 Log10 and −5.64 Log10 and −5.10 Log10 and −4.91 Log10 and −5.09 Log10	−1.42 Log10 and −1.40 Log10 and −2.10 Log10 and −5.10 Log10 and −1.93 Log10 and −3.79 Log10	−5.85 Log10 and −3.41 Log10 and −1.32 Log10 and −5.10 Log10 and −4.91 Log10 and −2.79 Log10			
CO[C@H]1/C=C/O[C@@]2(C)Oc3c(C)c(O)c4c(O)c(c(/C=N/N5CCN(C)CC5)c(O)c4c3C2=O)NC(=O)/C(C)=C\C=C\[C@H](C)[C@H](O)[C@@H](C)[C@@H](O)[C@@H](C)[C@H](OC(C)=O)[C@@H]1C [Rifampicin]	100	−3.37		3	−4.53	−4.53	−4.53				3.37±0	−3.4 log 10 CFU/mL				−4.08 Log10 and −6.73 Log10 and −3.5 Log10 and −3.4 Log10 and −4.9 Log10	−4.08 Log10 and −6.73 Log10 and −3.5 Log10 and −3.4 Log10 and −4.9 Log10	−4.08 Log10 and −6.73 Log10 and −3.5 Log10 and −3.4 Log10 and −4.9 Log10
